Reference: the supplement of paper PMC10307832

Experiments:
Assay in all cases: relative viability (nuclei count vs DMSO), 5 days (fraction); higher = more cells survive
AT9283 + Dasatinib = compound: O=C(Nc1c[nH]nc1-c1nc2ccc(CN3CCOCC3)cc2[nH]1)NC1CC1 [AT9283] + Cc1nc(Nc2ncc(C(=O)Nc3c(C)cccc3Cl)s2)cc(N2CCN(CCO)CC2)n1 [Dasatinib] (partner 0.075 µM)
Method in brief: (§1)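 Dosing by pin tool came one day after lung cancer cell lines were seeded in 1536-well plates, using either one drug or a fixed anchor-drug dose plus five library-drug doses (not always all listed) in √10 steps. After 5 days, nuclei were counted on 4× images. Relative viability is treated-well nuclei count divided by vehicle-well nuclei count, and values are medians of duplicate plates.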

AT9283 + Navitoclax = compound: O=C(Nc1c[nH]nc1-c1nc2ccc(CN3CCOCC3)cc2[nH]1)NC1CC1 [AT9283] + CC1(C)CCC(c2ccc(Cl)cc2)=C(CN2CCN(c3ccc(C(=O)NS(=O)(=O)c4ccc(N[C@H](CCN5CCOCC5)CSc5ccccc5)c(S(=O)(=O)C(F)(F)F)c4)cc3)CC2)C1 [Navitoclax] (partner 0.5 µM)
Method in brief: as §1

AT9283 + OSI-027 = compound: O=C(Nc1c[nH]nc1-c1nc2ccc(CN3CCOCC3)cc2[nH]1)NC1CC1 [AT9283] + COc1cccc2cc(-c3nc([C@H]4CC[C@H](C(=O)O)CC4)n4ncnc(N)c34)[nH]c12 [OSI-027] (partner 0.5 µM)
Method in brief: as §1

AT9283 + AZD7762 = compound: O=C(Nc1c[nH]nc1-c1nc2ccc(CN3CCOCC3)cc2[nH]1)NC1CC1 [AT9283] + NC(=O)Nc1cc(-c2cccc(F)c2)sc1C(=O)N[C@H]1CCCNC1 [AZD7762] (partner 0.2 µM)
Method in brief: as §1

Erlotinib + Decitabine = compound: C#Cc1cccc(Nc2ncnc3cc(OCCOC)c(OCCOC)cc23)c1 [Erlotinib] + Nc1ncn([C@H]2C[C@H](O)[C@@H](CO)O2)c(=O)n1 [Decitabine] (partner 2 µM)
Method in brief: as §1

Cell Line	relative viability (AT9283 + Dasatinib; first compound 0.003 µM)	relative viability (AT9283 + Dasatinib; first compound 0.03 µM)	relative viability (AT9283 + Dasatinib; first compound 0.09487 µM)	relative viability (AT9283 + Dasatinib; first compound 0.3 µM)	relative viability (AT9283 + Navitoclax; first compound 0.003 µM)	relative viability (AT9283 + Navitoclax; first compound 0.03 µM)	relative viability (AT9283 + Navitoclax; first compound 0.09487 µM)	relative viability (AT9283 + Navitoclax; first compound 0.3 µM)	relative viability (AT9283 + OSI-027; first compound 0.003 µM)	relative viability (AT9283 + OSI-027; first compound 0.03 µM)	relative viability (AT9283 + OSI-027; first compound 0.09487 µM)	relative viability (AT9283 + OSI-027; first compound 0.3 µM)	relative viability (AT9283 + AZD7762; first compound 0.003 µM)	relative viability (AT9283 + AZD7762; first compound 0.03 µM)	relative viability (AT9283 + AZD7762; first compound 0.09487 µM)	relative viability (AT9283 + AZD7762; first compound 0.3 µM)	relative viability (Erlotinib + Decitabine; first compound 0.02 µM)	relative viability (Erlotinib + Decitabine; first compound 0.2 µM)	relative viability (Erlotinib + Decitabine; first compound 0.6325 µM)	relative viability (Erlotinib + Decitabine; first compound 2 µM)
HCC-78	0.291	0.322	0.201	0.216	0.721	0.511	0.169	0.145	0.519	0.304	0.271	0.276	0.593	0.44	0.353	0.234	0.728	0.743	0.705	0.584
IA-LM	–	–	–	–	0.952	0.372	0.112	0.0779	–	–	–	–	–	–	–	–	–	–	–	–
LCLC-103H	0.433	0.486	0.428	0.296	–	–	–	–	0.396	0.451	0.415	0.276	0.749	0.661	0.554	0.328	0.765	0.688	0.716	0.639
NCI-H358	0.147	0.1	0.0732	0.0691	–	–	–	–	0.899	0.186	0.0868	0.0708	0.431	0.178	0.186	0.175	0.216	0.183	0.179	0.167
NCI-H520	0.2	0.174	0.147	0.145	1.17	0.34	0.236	0.23	0.256	0.198	0.185	0.172	–	–	–	–	0.593	0.504	0.519	0.564
NCI-H522	0.66	0.678	0.583	0.476	–	–	–	–	0.665	0.57	0.549	0.567	0.626	0.582	0.399	0.37	0.661	0.751	0.659	0.589
NCI-H650	0.425	0.433	0.219	0.175	–	–	–	–	0.519	0.528	0.379	0.169	0.814	0.923	0.373	0.227	0.34	0.313	0.303	0.307
NCI-H661	0.862	0.355	0.307	0.26	–	–	–	–	0.767	0.529	0.313	0.344	–	–	–	–	0.566	–	0.551	0.384
NCI-H1299	–	–	–	–	1.09	0.927	0.363	0.304	–	–	–	–	–	–	–	–	–	–	–	–
NCI-H1563	0.444	0.444	0.42	0.327	–	–	–	–	0.769	0.748	0.645	0.525	–	–	–	–	–	–	–	–
NCI-H1623	0.567	0.51	0.615	0.324	–	–	–	–	0.438	0.448	0.358	0.381	–	–	–	–	–	–	–	–
NCI-H1648	–	–	–	–	–	–	–	–	0.277	0.259	0.283	0.246	0.465	0.631	0.368	0.37	0.433	0.512	0.491	0.39
NCI-H1650	0.347	0.301	0.216	0.171	1.34	1	0.29	0.232	0.838	0.575	0.357	0.227	–	–	–	–	0.331	0.365	0.509	0.421
NCI-H1703	–	–	–	–	1.36	0.19	0.216	0.176	–	–	–	–	0.12	0.108	0.0955	0.106	–	–	–	–
NCI-H2009	0.308	0.212	0.124	0.099	1.26	0.681	0.391	0.284	0.652	0.511	0.182	0.101	–	–	–	–	0.333	0.347	0.35	0.374
NCI-H2023	0.526	0.42	0.182	0.101	1.04	0.71	0.383	0.119	0.389	0.456	0.148	0.104	–	–	–	–	0.247	0.222	0.251	0.24
NCI-H2228	0.491	0.503	0.307	0.0747	0.93	0.774	0.51	0.144	0.585	0.648	0.355	0.126	–	–	–	–	–	–	–	–
NCI-H2342	0.295	0.292	0.289	0.27	–	–	–	–	0.605	0.576	0.508	0.413	0.439	0.364	0.36	0.4	0.78	–	0.701	0.683
SK-LU-1	0.217	0.124	0.0747	0.0888	1.13	0.415	0.178	0.18	0.366	0.276	0.22	0.165	–	–	–	–	0.661	0.707	0.634	0.592
SK-MES-1	0.56	0.25	0.0729	0.0952	1.24	1.11	0.336	0.147	0.74	0.619	0.215	0.197	–	–	–	–	0.393	0.345	0.31	0.27
SW 900	0.652	0.533	0.438	0.385	–	–	–	–	0.718	0.703	0.388	0.229	0.478	1.15	0.545	0.271	0.392	0.526	0.429	0.374
SW 1573	0.496	0.115	0.0919	0.0873	0.868	0.508	0.117	0.117	0.534	0.352	0.146	0.134	–	–	–	–	–	0.511	0.495	0.576
UMC-11	0.453	0.128	0.139	0.154	0.309	0.113	0.118	0.128	0.559	0.17	0.152	0.167	–	–	–	–	0.652	0.597	0.636	0.567
